# Experimental data from patent US20060069132A1, “Azolecarboxamide herbicides” (priority 2004, published 2006).
# Assays:
# morningglory = assay: Test B pre-/postemergence herbicide test; format: in vivo, Ipomoea coccinea; details: for Plant response rating, Morningglory: preemergence; for Morningglory plant response rating: postemergence, visual rating, scale 0 (no effect) to 100 (complete control)
# Summary of the method: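 Visual rating, 0 (no effect) to 100 (complete control), versus untreated controls after 13–15 d in greenhouse. Pre- and postemergence applications (postemergence plants 2–18 cm, 1–4 leaves); flooded paddy arm at 2-leaf stage. Compounds in non-phytotoxic solvent plus surfactant.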
# pigweed = assay: Test B pre-/postemergence herbicide test; format: in vivo, Amaranthus retroflexus; details: for Plant response rating, Pigweed: preemergence; for Pigweed plant response rating: postemergence, visual rating, scale 0 (no effect) to 100 (complete control)
# Summary of the method: (§1)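 Seeds were planted and treated preemergence with compounds formulated in a non-phytotoxic solvent mixture containing surfactant, while plants at the 1- to 4-leaf stage (2 to 18 cm) received postemergence sprays. Flooded paddy plants were grown to the 2-leaf stage. After 13 to 15 days in a greenhouse, injury was visually rated 0–100 against untreated controls.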
# wheat = assay: Test B postemergence herbicide test; format: in vivo, Triticum aestivum; design: key to Wheat plant response rating: 0 = no effect, 100 = complete control; details: postemergence, 500 g ai/ha; visual rating, scale 0 (no effect) to 100 (complete control)
# Summary of the method: (§2)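 Plants grow to 1- to 4-leaf stage (2–18 cm) for postemergence spraying, or to 2-leaf stage for the paddy test. Formulated compound is applied. Greenhouse holding lasts 13–15 days. Response is scored visually relative to controls, 0 no effect to 100 complete control; a dash means no result.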
# wild oat = assay: Test B postemergence herbicide test; format: in vivo, Avena fatua; details: postemergence, visual rating, scale 0 (no effect) to 100 (complete control)
# Summary of the method: as §2
# ducksalad = assay: Test B flooded paddy test; format: in vivo, Heteranthera limosa; details: 1000 g ai/ha, visual rating, scale 0 to 100 (0 no effect, 100 complete control), 13 to 15 days
# Summary of the method: (§3)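 Visual ratings, 0 (no effect) to 100 (complete control), made versus controls after 13–15 d greenhouse. Paddy plants treated at 2-leaf stage; postemergence plants at 1- to 4-leaf stage, 2–18 cm tall.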
# lambsquarters = assay: Test B pre-/postemergence herbicide test; format: in vivo, Chenopodium album; details: for Plant response rating, Lambsquarters: preemergence; for Lambsquarters plant response rating: postemergence, visual rating, scale 0 (no effect) to 100 (complete control)
# Summary of the method: as §1
# velvetleaf = assay: Test B pre-/postemergence herbicide test; format: in vivo, Abutilon theophrasti; details: for Plant response rating, Velvetleaf: preemergence; for Velvetleaf plant response rating: postemergence, visual rating, scale 0 (no effect) to 100 (complete control)
# Summary of the method: as §1
# rice = assay: Test B flooded paddy test; format: in vivo, Oryza sativa; details: 1000 g ai/ha, visual rating, scale 0 to 100 (0 no effect, 100 complete control), 13 to 15 days
# Summary of the method: as §3
# Surinam grass = assay: Test B pre-/postemergence herbicide test; format: in vivo, Urochloa decumbens; details: for Plant response rating, Surinam Grass: preemergence; for Surinam Grass plant response rating: postemergence, visual rating, scale 0 (no effect) to 100 (complete control)
# Summary of the method: as §1
# [1] = system: small flower umbrella sedge; assay: Test B flooded paddy test; format: in vivo, Cyperus difformis; details: 1000 g ai/ha, visual rating, scale 0 to 100 (0 no effect, 100 complete control), 13 to 15 days
# Summary of the method: as §3
# large crabgrass = assay: Test B pre-/postemergence herbicide test; format: in vivo, Digitaria sanguinalis; details: for Plant response rating, Crabgrass, Large: preemergence; for Crabgrass, Large plant response rating: postemergence, visual rating, scale 0 (no effect) to 100 (complete control)
# Summary of the method: as §1
# giant foxtail = assay: Test B pre-/postemergence herbicide test; format: in vivo, Setaria faberi; details: for Plant response rating, Foxtail, Giant: preemergence; for Foxtail, Giant plant response rating: postemergence, visual rating, scale 0 (no effect) to 100 (complete control)
# Summary of the method: as §1
# barnyardgrass = assay: Test B flooded paddy test; format: in vivo, Echinochloa crus-galli; details: 1000 g ai/ha, visual rating, scale 0 to 100 (0 no effect, 100 complete control), 13 to 15 days
# Summary of the method: as §3
# corn = assay: Test B pre-/postemergence herbicide test; format: in vivo, Zea mays; details: for Plant response rating, Corn: preemergence; for Corn plant response rating: postemergence, visual rating, scale 0 (no effect) to 100 (complete control)
# Summary of the method: as §1
# blackgrass = assay: Test B postemergence herbicide test; format: in vivo, Alopecurus myosuroides; details: postemergence, visual rating, scale 0 (no effect) to 100 (complete control)
# Summary of the method: as §3
# [2] = 500 g ai/ha, visual rating 0-100, 0 no effect, 100 complete control
# [3] = 125 g ai/ha, 0 to 100 scale, 0 is no effect, 100 is complete control
structure (smiles),measurement,setting,value
CCN(CC)C(=O)c1ccnc(NC(=O)c2cc(C(C)(C)C)nn2CC)c1 [Compound 153],"Plant response rating, Morningglory",morningglory; [2],10
same,Morningglory plant response rating,morningglory; 125 g ai/ha,10
same,Morningglory plant response rating,morningglory; 500 g ai/ha,70
same,"Plant response rating, Morningglory",morningglory; [3],0
same,"Plant response rating, Pigweed",pigweed; [2],100
same,Pigweed plant response rating,pigweed; 125 g ai/ha,20
same,Pigweed plant response rating,pigweed; 500 g ai/ha,70
same,"Plant response rating, Pigweed",pigweed; [3],100
same,Wheat plant response rating,wheat,10
same,"Oat, Wild plant response rating",wild oat; 125 g ai/ha,20
same,"Oat, Wild plant response rating",wild oat; 500 g ai/ha,50
same,Ducksalad plant response rating,ducksalad,80
same,"Plant response rating, Lambsquarters",lambsquarters; [2],100
same,Lambsquarters plant response rating,lambsquarters; 125 g ai/ha,80
same,Lambsquarters plant response rating,lambsquarters; 500 g ai/ha,80
same,"Plant response rating, Lambsquarters",lambsquarters; [3],100
same,"Plant response rating, Velvetleaf",velvetleaf; [2],100
same,Velvetleaf plant response rating,velvetleaf; 125 g ai/ha,50
same,Velvetleaf plant response rating,velvetleaf; 500 g ai/ha,60
same,"Plant response rating, Velvetleaf",velvetleaf; [3],40
same,Rice plant response rating,rice,60
same,"Plant response rating, Surinam Grass",Surinam grass; [2],70
same,Surinam Grass plant response rating,Surinam grass; 125 g ai/ha,30
same,Surinam Grass plant response rating,Surinam grass; 500 g ai/ha,30
same,"Plant response rating, Surinam Grass",Surinam grass; [3],10
same,"Sedge, Umbrella plant response rating",[1],70
same,"Plant response rating, Crabgrass, Large",large crabgrass; [2],80
same,"Crabgrass, Large plant response rating",large crabgrass; 125 g ai/ha,10
same,"Crabgrass, Large plant response rating",large crabgrass; 500 g ai/ha,20
same,"Plant response rating, Crabgrass, Large",large crabgrass; [3],50
same,"Plant response rating, Foxtail, Giant",giant foxtail; [2],50
same,"Foxtail, Giant plant response rating",giant foxtail; 125 g ai/ha,10
same,"Foxtail, Giant plant response rating",giant foxtail; 500 g ai/ha,20
same,"Plant response rating, Foxtail, Giant",giant foxtail; [3],0
same,Barnyardgrass plant response rating,barnyardgrass,40
same,"Plant response rating, Corn",corn; [2],20
same,Corn plant response rating,corn; 125 g ai/ha,10
same,Corn plant response rating,corn; 500 g ai/ha,20
same,"Plant response rating, Corn",corn; [3],0
same,Blackgrass plant response rating,blackgrass; 125 g ai/ha,10
same,Blackgrass plant response rating,blackgrass; 500 g ai/ha,10
CCn1nc(C(C)(C)C)cc1C(=O)Nc1cc(C(=O)NCC2CC2)ccn1 [Compound 155],"Plant response rating, Morningglory",morningglory; [2],40
same,Morningglory plant response rating,morningglory; 125 g ai/ha,30
same,Morningglory plant response rating,morningglory; 500 g ai/ha,60
same,"Plant response rating, Morningglory",morningglory; [3],20
same,"Plant response rating, Pigweed",pigweed; [2],100
same,Pigweed plant response rating,pigweed; 125 g ai/ha,60
same,Pigweed plant response rating,pigweed; 500 g ai/ha,100
same,"Plant response rating, Pigweed",pigweed; [3],100
same,Wheat plant response rating,wheat,20
same,"Oat, Wild plant response rating",wild oat; 125 g ai/ha,40
same,"Oat, Wild plant response rating",wild oat; 500 g ai/ha,50
same,Ducksalad plant response rating,ducksalad,100
same,"Plant response rating, Lambsquarters",lambsquarters; [2],100
same,Lambsquarters plant response rating,lambsquarters; 125 g ai/ha,70
same,Lambsquarters plant response rating,lambsquarters; 500 g ai/ha,90
same,"Plant response rating, Lambsquarters",lambsquarters; [3],100
same,"Plant response rating, Velvetleaf",velvetleaf; [2],70
same,Velvetleaf plant response rating,velvetleaf; 125 g ai/ha,20
same,Velvetleaf plant response rating,velvetleaf; 500 g ai/ha,70
same,"Plant response rating, Velvetleaf",velvetleaf; [3],20
same,Rice plant response rating,rice,20
same,"Plant response rating, Surinam Grass",Surinam grass; [2],50
same,Surinam Grass plant response rating,Surinam grass; 125 g ai/ha,20
same,Surinam Grass plant response rating,Surinam grass; 500 g ai/ha,30
same,"Plant response rating, Surinam Grass",Surinam grass; [3],10
same,"Sedge, Umbrella plant response rating",[1],90
same,"Plant response rating, Crabgrass, Large",large crabgrass; [2],100
same,"Crabgrass, Large plant response rating",large crabgrass; 125 g ai/ha,20
same,"Crabgrass, Large plant response rating",large crabgrass; 500 g ai/ha,40
same,"Plant response rating, Crabgrass, Large",large crabgrass; [3],60
same,"Plant response rating, Foxtail, Giant",giant foxtail; [2],90
same,"Foxtail, Giant plant response rating",giant foxtail; 125 g ai/ha,20
same,"Foxtail, Giant plant response rating",giant foxtail; 500 g ai/ha,30
same,"Plant response rating, Foxtail, Giant",giant foxtail; [3],20
same,Barnyardgrass plant response rating,barnyardgrass,70
same,"Plant response rating, Corn",corn; [2],30
same,Corn plant response rating,corn; 125 g ai/ha,10
same,Corn plant response rating,corn; 500 g ai/ha,20
same,"Plant response rating, Corn",corn; [3],0
same,Blackgrass plant response rating,blackgrass; 125 g ai/ha,40
same,Blackgrass plant response rating,blackgrass; 500 g ai/ha,50
